Source: patent US20150250713A1, “Pharmaceutical Composition” (CIPLA LIMITED, priority 2012, published 2015)

Experiment: Moisture uptake of HFA propellants
Format: physicochemical
Settings: ratio versus HFA-227 (measured values)

For `FCC(F)(F)F` [HFA-134 (a), 1,1,1,2-tetrafluoroethane], the “moisture uptake compared to HFA-227” value was “six times higher”.
